Assay results taken from US9238656B2, “Imidazo[4,5-b]pyridine derivatives as ALK and JAK modulators for the treatment of proliferative disorders” (priority 2012, dated 2016).

What was measured:
[1] = molecular target: baculovirus-expressed ALK (Homo sapiens, UniProt Q9UM73); assay: ALK kinase inhibition, TRF/ELISA; type: biochemical; settings: read-out: ALK Potency
Summary of the method: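 Plates were coated with GST-PLC-γ substrate (10 μg/mL) and the reaction was started with 30 ng/mL ALK, running 15 min at 37° C. Phosphotyrosine was detected by time-resolved fluorescence with Eu-labeled PT66 antibody. IC50s came from variable-slope sigmoidal fits of percent inhibition versus log concentration.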

[2] = molecular target: baculovirus-expressed JAK2 kinase (Homo sapiens, UniProt O60674); assay: biochemical; settings: 0.2 μM ATP; read-out: JAK2 Potency
Sequence of baculovirus-expressed JAK2 kinase (O60674 whole entry): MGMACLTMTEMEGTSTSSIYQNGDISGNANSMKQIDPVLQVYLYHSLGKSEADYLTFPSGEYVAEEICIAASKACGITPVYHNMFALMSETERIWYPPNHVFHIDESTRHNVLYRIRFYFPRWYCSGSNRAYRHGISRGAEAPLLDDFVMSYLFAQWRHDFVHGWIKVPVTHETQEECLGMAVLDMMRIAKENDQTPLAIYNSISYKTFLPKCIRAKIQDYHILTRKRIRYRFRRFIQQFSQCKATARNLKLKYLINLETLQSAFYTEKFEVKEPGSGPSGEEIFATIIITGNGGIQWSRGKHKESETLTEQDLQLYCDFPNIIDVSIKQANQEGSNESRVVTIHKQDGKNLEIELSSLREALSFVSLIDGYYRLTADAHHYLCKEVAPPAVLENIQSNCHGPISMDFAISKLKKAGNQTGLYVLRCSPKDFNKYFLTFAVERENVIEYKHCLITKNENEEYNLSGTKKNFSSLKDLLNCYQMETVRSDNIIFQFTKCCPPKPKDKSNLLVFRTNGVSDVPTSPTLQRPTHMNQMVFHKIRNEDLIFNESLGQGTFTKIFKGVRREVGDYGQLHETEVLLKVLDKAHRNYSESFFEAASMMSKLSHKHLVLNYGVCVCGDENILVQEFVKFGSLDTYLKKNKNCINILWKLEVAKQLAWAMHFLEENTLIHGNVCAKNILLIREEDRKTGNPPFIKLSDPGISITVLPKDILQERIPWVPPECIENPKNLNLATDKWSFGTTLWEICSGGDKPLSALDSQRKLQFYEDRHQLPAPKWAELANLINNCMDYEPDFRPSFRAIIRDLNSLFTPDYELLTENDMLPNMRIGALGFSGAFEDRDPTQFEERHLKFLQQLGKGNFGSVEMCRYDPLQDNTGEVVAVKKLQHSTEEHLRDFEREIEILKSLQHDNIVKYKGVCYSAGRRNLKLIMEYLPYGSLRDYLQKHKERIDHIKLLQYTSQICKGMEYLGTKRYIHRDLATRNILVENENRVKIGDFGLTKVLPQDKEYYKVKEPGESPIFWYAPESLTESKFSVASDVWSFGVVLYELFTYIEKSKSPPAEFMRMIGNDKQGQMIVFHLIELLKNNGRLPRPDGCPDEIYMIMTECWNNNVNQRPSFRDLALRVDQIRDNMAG
Summary of the method: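 Time-resolved fluorescence kinase assay using 15 ng/mL baculovirus-expressed JAK2 on Neutravidin-captured biotinylated 15-mer peptide substrate, reaction 20 min at room temperature. IC50 from percent inhibition versus log concentration, sigmoidal variable-slope fit.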

Sequence of baculovirus-expressed ALK (Q9UM73 19-1620): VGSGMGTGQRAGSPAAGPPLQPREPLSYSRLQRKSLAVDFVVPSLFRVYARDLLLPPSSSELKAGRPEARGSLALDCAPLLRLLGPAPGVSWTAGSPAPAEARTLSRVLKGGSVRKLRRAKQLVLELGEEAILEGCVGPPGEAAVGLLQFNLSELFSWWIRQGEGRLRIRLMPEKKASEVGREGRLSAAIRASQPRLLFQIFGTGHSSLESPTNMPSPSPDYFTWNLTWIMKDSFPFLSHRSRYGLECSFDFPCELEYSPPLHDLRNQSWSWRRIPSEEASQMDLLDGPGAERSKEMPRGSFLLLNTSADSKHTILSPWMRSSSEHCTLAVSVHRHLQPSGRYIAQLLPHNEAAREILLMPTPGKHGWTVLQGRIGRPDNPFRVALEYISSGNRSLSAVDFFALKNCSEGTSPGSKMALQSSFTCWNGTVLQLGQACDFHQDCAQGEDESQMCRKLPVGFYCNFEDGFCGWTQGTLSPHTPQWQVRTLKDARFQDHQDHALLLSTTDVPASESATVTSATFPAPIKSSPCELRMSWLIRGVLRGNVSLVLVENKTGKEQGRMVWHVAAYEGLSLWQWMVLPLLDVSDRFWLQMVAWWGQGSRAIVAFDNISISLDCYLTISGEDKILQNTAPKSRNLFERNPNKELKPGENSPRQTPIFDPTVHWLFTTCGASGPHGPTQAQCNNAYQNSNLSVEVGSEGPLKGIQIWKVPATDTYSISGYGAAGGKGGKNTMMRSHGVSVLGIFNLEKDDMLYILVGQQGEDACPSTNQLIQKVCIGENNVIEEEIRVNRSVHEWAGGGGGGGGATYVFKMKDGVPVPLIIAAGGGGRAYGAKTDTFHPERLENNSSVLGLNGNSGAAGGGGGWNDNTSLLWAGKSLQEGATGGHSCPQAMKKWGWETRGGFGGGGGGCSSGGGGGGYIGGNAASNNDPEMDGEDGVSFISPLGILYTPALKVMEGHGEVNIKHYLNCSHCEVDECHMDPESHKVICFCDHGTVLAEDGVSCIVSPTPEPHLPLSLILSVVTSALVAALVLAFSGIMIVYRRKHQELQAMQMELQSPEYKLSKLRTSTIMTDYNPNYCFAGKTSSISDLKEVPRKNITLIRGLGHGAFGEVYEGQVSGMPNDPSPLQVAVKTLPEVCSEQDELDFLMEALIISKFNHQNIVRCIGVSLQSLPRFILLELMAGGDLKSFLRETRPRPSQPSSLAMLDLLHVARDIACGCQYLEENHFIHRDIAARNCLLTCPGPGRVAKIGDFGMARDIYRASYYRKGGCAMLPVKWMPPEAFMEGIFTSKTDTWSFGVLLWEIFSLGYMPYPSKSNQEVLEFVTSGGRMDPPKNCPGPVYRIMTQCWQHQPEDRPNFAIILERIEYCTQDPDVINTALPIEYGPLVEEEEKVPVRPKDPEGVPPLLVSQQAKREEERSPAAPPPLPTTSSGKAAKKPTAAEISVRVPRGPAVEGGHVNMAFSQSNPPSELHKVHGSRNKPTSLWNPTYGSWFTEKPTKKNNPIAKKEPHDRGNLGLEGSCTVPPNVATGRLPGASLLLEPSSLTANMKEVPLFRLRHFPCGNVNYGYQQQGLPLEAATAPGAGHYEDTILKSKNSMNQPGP

Row | Compound | IC50 [1] [nM] | IC50 [2] [nM] | melting point [°C]
1 | NC(=O)[C@@H]1[C@H](Nc2c(Br)cnc3[nH]c(-c4ccc(N5CCOCC5)nc4)nc23)[C@H]2C=C[C@@H]1C2 [Compound CXII, (1S,2S,3R,4R)-3-[6-Bromo-2-(6-morpholin-4-yl-pyridin-3-yl)-3H-imidazo[4,5-b]pyridin-7-ylamino]-bicyclo[2.2.1]hept-5-ene-2-carboxylic acid amide] | < 100 | < 100 | 288 to 290
2 | CN(C)c1ccc(-c2nc3c(N[C@H]4[C@@H](C(N)=O)[C@@H]5C=C[C@H]4C5)c(Br)cnc3[nH]2)cc1 [Compound LXXVI, (1S,2S,3R,4R)-3-[6-Bromo-2-(4-dimethylamino-phenyl)-3H-imidazo[4,5-b]pyridin-7-ylamino]-bicyclo[2.2.1]hept-5-ene-2-carboxylic acid amide] | < 100 | < 100 | 264 to 265
3 | COc1cc(CN2CC[C@H](O)C2)ccc1-c1nc2c(N[C@H]3[C@@H](C(N)=O)[C@@H]4C=C[C@H]3C4)c(Cl)cnc2[nH]1 [Compound LV, (1S,2S,3R,4R)-3-{6-Chloro-2-[4-((S)-3-hydroxy-pyrrolidin-1-ylmethyl)-2-methoxyphenyl]-3H-imidazo[4,5-b]pyridine-7-ylamino}-bicyclo[2.2.1]hept-5-ene-2-carboxylic acid amide] | < 100 | < 100 | 205 to 208
4 | COc1ncccc1-c1nc2c(N[C@H]3[C@@H](C(N)=O)[C@@H]4C=C[C@H]3C4)c(Br)cnc2[nH]1 [Compound CI, (1S,2S,3R,4R)-3-[6-Bromo-2-(2-methoxy-pyridin-3-yl)-3H-imidazo[4,5-b]pyridin-7-ylamino]-bicyclo[2.2.1]hept-5-ene-2-carboxylic acid amide] | < 100 | < 100 | 201
5 | CC(O)CN1CCN(C(=O)c2cccc(-c3nc4c(N[C@H]5[C@@H](C(N)=O)[C@@H]6C=C[C@H]5C6)c(Cl)cnc4[nH]3)c2)CC1 (stereo partly drawn) [Compound CCXXIII, (1S,2S,3R,4R)-3-(6-chloro-2-(3-(4-(2-hydroxypropyl)piperazine-1-carbonyl)phenyl)-3H-imidazo[4,5-b]pyridine-7-ylamino)pyridin[2.2.1]hept-5-ene-2-carboxamide] | 100 to 1000 | < 100 | 183
6 | COc1cc(N2CCN(C)CC2)ccc1-c1nc2c(N[C@H]3[C@@H](C(N)=O)[C@@H]4C=C[C@H]3C4)c(Br)cnc2[nH]1 [Compound XCVI, (1S,2S,3R,4R)-3-{6-Bromo-2-[2-methoxy-4-(4-methyl-piperazin-1-yl)-phenyl]-3H-imidazo[4,5-b]pyridin-7-ylamino}-bicyclo[2.2.1]hept-5-ene-2-carboxylic acid amide] | < 100 | < 100 | 185 to 195
7 | CC(O)CN1CCN(C(=O)c2ccc(-c3nc4c(N[C@H]5[C@@H](C(N)=O)[C@@H]6C=C[C@H]5C6)c(Cl)cnc4[nH]3)cc2)CC1 (stereo partly drawn) [Compound CCXXIV, (1S,2S,3R,4R)-3-(6-chloro-2-(4-(4-(2-hydroxypropyl)piperazine-1-carbonyl)phenyl)-3H-imidazo[4,5-b]pyridine-7-ylamino)pyridin[2.2.1]hept-5-ene-2-carboxamide] | < 100 | < 100 | 224
8 | COc1cc(C2CCN(C[C@@H](C)O)CC2)ccc1-c1nc2c(N[C@H]3[C@@H](C(N)=O)[C@@H]4C=C[C@H]3C4)c(Cl)cnc2[nH]1 [Compound CXVI] | < 100 | < 100 | > 120
9 | CN(C)c1cccc(-c2nc3c(N[C@H]4[C@@H](C(N)=O)[C@@H]5C=C[C@H]4C5)c(Br)cnc3[nH]2)c1 [Compound LXXVII, (1S,2S,3R,4R)-3-[6-Bromo-2-(3-dimethylamino-phenyl)-3H-imidazo[4,5-b]pyridin-7-ylamino]-bicyclo[2.2.1]hept-5-ene-2-carboxylic acid amide] | < 100 | < 100 | 220 to 221
10 | COC[C@@H](O)CN1CCC(c2ccc(-c3nc4c(N[C@H]5[C@@H](C(N)=O)[C@@H]6C=C[C@H]5C6)c(Cl)cnc4[nH]3)c(OC)c2)CC1 [Compound CXIX, (1S,2S,3R,4R)-3-(6-Chloro-2-{4-[1-((S)-2-hydroxy-3-methoxy-propyl)-piperidin-4-yl]-2-methoxy-phenyl}-3H-imidazo[4,5-b]pyridin-7-ylamino)-bicyclo[2.2.1]hept-5-ene-2-carboxylic acid amide] | < 100 | < 100 | 189 to 191

Next, values leading:

Row | IC50 [1] [nM] | IC50 [2] [nM] | melting point [°C] | Compound
11 | 1000 to 10000 | < 100 | 243 | NC(=O)[C@@H]1[C@H](Nc2c(Cl)cnc3[nH]c(-c4cccc(C(=O)NC(CO)C(=O)O)c4)nc23)[C@H]2C=C[C@@H]1C2 (stereo partly drawn) [Compound CCXXIX, 2-(3-(7-((1R,2R,3S,4S)-3-carbamoylbicyclo(2.2.1)hept-5-en-2-ylamino)-6-chloro-3H-imidazo[4,5-b]pyridine-2-yl)benzamido)-3-hydroxypropanoic acid]
12 | < 100 | < 100 | 256 to 258 | CN1CCN(c2ccc(-c3nc4c(N[C@@H]5[C@H]6CC[C@H](C6)[C@@H]5C(N)=O)c(Br)cnc4[nH]3)cc2)CC1 [Compound CXIII, (1R,2S,3R,4S)-3-{6-Bromo-2-[4-(4-methyl-piperazin-1-yl)-phenyl]-3H-imidazo[4,5-b]pyridin-7-ylamino}-bicyclo[2.2.1]heptane-2-carboxylic acid amide]
13 | 1000 to 10000 | 1000 to 10000 | 194 to 197 | COc1cccc(OC)c1-c1nc2c(N[C@H]3[C@@H](C(N)=O)[C@@H]4C=C[C@H]3C4)c(Br)cnc2[nH]1 [Compound CVI, (1S,2S,3R,4R)-3-[6-Bromo-2-(2,6-dimethoxy-phenyl)-3H-imidazo[4,5-b]pyridin-7-ylamino]-bicyclo[2.2.1]hept-5-ene-2-carboxylic acid amide]
14 | 100 to 1000 | < 100 | 186 | NC(=O)[C@@H]1[C@H](Nc2c(Cl)cnc3[nH]c(-c4ccc(C(=O)NC(CO)C(=O)O)cc4)nc23)[C@H]2C=C[C@@H]1C2 (stereo partly drawn) [Compound CCXXX, 2-(4-(7-((1R,2R,3S,4S)-3-carbamoylbicyclo(2.2.1)hept-5-en-2-ylamino)-6-chloro-3H-imidazo[4,5-b]pyridine-2-yl)benzamido)-3-hydroxypropanoic acid]
15 | 100 to 1000 | < 100 | 255 to 258 | Cn1cc(-c2nc3c(N[C@H]4[C@@H](C(N)=O)[C@@H]5C=C[C@H]4C5)c(Br)cnc3[nH]2)cn1 [Compound LXXXV, (1S,2S,3R,4R)-3-[6-Bromo-2-(1-methyl-1H-pyrazol-4-yl)-3H-imidazo[4,5-b]pyridin-7-ylamino]-bicyclo[2.2.1]hept-5-ene-2-carboxylic acid amide]
16 | < 100 | < 100 | 185 to 195 | COc1cc(N2CCC(N3CCOCC3)CC2)ccc1-c1nc2c(N[C@H]3[C@@H](C(N)=O)[C@@H]4C=C[C@H]3C4)c(Br)cnc2[nH]1 [Compound XCVII, (1S,2S,3R,4R)-3-{6-Bromo-2-[2-methoxy-4-(4-morpholin-4-yl-piperidin-1-yl)-phenyl]-3H-imidazo[4,5-b]pyridin-7-ylamino}-bicyclo[2.2.1]hept-5-ene-2-carboxylic acid amide]
17 | 100 to 1000 | > 10000 | 185 to 195 | COc1cc(N2CCC(N3CCN(C)CC3)CC2)ccc1-c1nc2c(N[C@H]3[C@@H](C(N)=O)[C@@H]4C=C[C@H]3C4)ccnc2[nH]1 [Compound XCIX, (1S,2S,3R,4R)-3-(2-{2-Methoxy-4-[4-(4-methyl-piperazin-1-yl)-piperidin-1-yl]-phenyl}-3H-imidazo[4,5-b]pyridin-7-ylamino)-bicyclo[2.2.1]hept-5-ene-2-carboxylic acid amide]
18 | < 100 | < 100 | 208 to 209 | CN1CCN(Cc2ccc(-c3nc4c(N[C@H]5[C@@H](C(N)=O)[C@@H]6C=C[C@H]5C6)c(Br)cnc4[nH]3)cc2)CC1 [Compound C]
19 | > 10000 | 1000 to 10000 | 240 to 244 | NC(=O)[C@@H]1[C@H](Nc2ccnc3[nH]c(-c4ccc(CN5CCOCC5)cc4)nc23)[C@H]2C=C[C@@H]1C2 [Compound XC, (1S,2S,3R,4R)-3-[2-(4-Morpholin-4-ylmethyl-phenyl)-3H-imidazo[4,5-b]pyridin-7-ylamino]-bicyclo[2.2.1]hept-5-ene-2-carboxylic acid amide]
20 | < 100 | < 100 | 142 to 146 | COc1cc(CN2CCN(C[C@H](C)O)CC2)ccc1-c1nc2c(N[C@H]3[C@@H](C(N)=O)[C@@H]4C=C[C@H]3C4)c(Cl)cnc2[nH]1 [Compound XLIII, (1S,2S,3R,4R)-3-(6-Chloro-2-{4-[4-((S)-2-hydroxypropyl)-piperazin-1-ylmethyl]-2-methoxyphenyl}-3H-imidazo[4,5-b]pyridine-7-ylamino)-bicyclo[2.2.1]hept-5-ene-2-carboxylic acid amide]
21 | < 100 | < 100 | > 250 | NC(=O)[C@@H]1[C@H](Nc2c(Cl)cnc3[nH]c(-c4ccc5c(c4)CCC4(CCNCC4)O5)nc23)[C@H]2C=C[C@@H]1C2 [Compound CXV, (1S,2S,3R,4R)-3-[(6-chloro-2-spiro[chromane-2,4′-piperidine]-6-yl-3H-imidazo[4,5-b]pyridin-7-yl)amino]bicyclo[2.2.1]hept-5-ene-2-carboxamide]
